According to PubChem BioAssay AID1963982 (Molecular Pharmacology Branch, DTP, NCI, 2024):
pIC50: −log10 of the molar value.

Tested on: 313798-341-R-J2-PDC spheroids, viability
Assay: Anticancer human tumor 313798-341-R-J2-PDC patient-derived cervical squamous cell carcinoma cell line growth inhibition [PI3K]
Settings: spheroids with HUVEC and MSC; for pIC50: curve of first compound; for viability, T/C: stronger effect = lower value
Text: Combinatorial screen of targeted agents with the PI3K inhibitors inavolisib, alpelisib, duvelisib, and copanlisib in multi-cell type tumor spheroids
A high-throughput screen of multi-cell type tumor spheroids was designed to identify active combinations of targeted small molecules and PI3K pathway inhibitors. Complex spheroids include a stromal component modeled by human endothelial cells (HUVEC) and fibroblasts modeled by human mesenchymal stem cells (MSCs). The concentration ranges selected for each drug and investigational agent were based upon clinically achievable concentrations if the clinical Cmax of the agent was known.
Compounds. The drugs and investigational agents: inavolisib (NSC800729), alpelisib (NSC765974), duvelisib (NSC772469), copanlisib (NSC816437), ipatasertib (NSC767898), afuresertib (NSC778305), talazoparib (NSC767125), sapanisertib (NSC764658), selumetinib (NSC741078), tovorafenib (DAY101, NSC766906), vemurafenib (NSC761431), ravoxertinib (NSC781343), sotorasib (NSC818433), MRTX1133 (NSC 836407), abemaciclib (NSC 768073), palbociclib (NSC758247), venetoclax (NSC 766270), SY5609 (NSC837396), enzalutamide (NSC755605), and darolutamide (NSC825331), were obtained from the National Cancer Institute (NCI) Developmental Therapeutics Program Chemical Repository. The FDA-approved anticancer drug set is available from the NCI Developmental Therapeutics Program. […] The stock solutions were prepared in dimethyl sulfoxide (DMSO, Sigma-Aldrich, St. Louis, MO, cat. D2650) at 800-fold the tested concentration and stored at -70 degrees C prior to their use. All drugs and investigational agents were tested over a range starting from a high concentration at or near the clinical Cmax and decreasing in half-log increments. If the clinical Cmax for an agent had not been determined, the highest concentration tested was 10 microM.
Cell Culture. All cells were maintained in an incubator at 37 degrees C and 5% CO2 with 95% humidity. The PDC lines were cultured according to standard operating procedures established by the NCI PDMR (https://pdmr.cancer.gov/sops/default.htm). All PDCs were thawed and cultured in Matrigel-coated flasks prepared with a working solution of 1X Ham's F-12 nutrient mix, without supplementation (Invitrogen, Waltham, MA, cat. 11765054), 100 U/mL penicillin-streptomycin (Invitrogen, cat. 15140122), and 2.5% Matrigel (Corning Inc., Corning, NY, cat. 354248) for the first three passages. The 354836-022-R-J1-PDC, 475296-252-R-J1-PDC, and 997726-040-R-J2-PDC lines were cultured in 6A media, which includes advanced DMEM/F-12 (Thermo Fisher Scientific, cat. 12634028), 10 mM HEPES (Thermo Fisher Scientific, cat. 15630080), 1X GlutaMAX supplement (Thermo Fisher Scientific, cat. 35050061), 0.1 mg/mL primocin (InvivoGen, San Diego, CA, cat. ant-pm-2), 10% defined fetal bovine serum, heat inactivated (HyClone Laboratories Inc., Logan, UT, cat. SH30070.03HI), 50% L-WRN conditioned media (ATCC, cat. CRL-3276), 1.25 mM N-Acetyl-L-cysteine (Sigma-Aldrich, cat. A9165), 10 mM nicotinamide (Sigma-Aldrich, cat. N0636), 1X B-27 supplement (Thermo Fisher Scientific, cat. 17504044), 1X N-2 supplement (Thermo Fisher Scientific, cat. 17502048), and 10 microM Y-27632 dihydrochloride (Tocris Bioscience, Bristol, United Kingdom, cat. 1254). The 624824-186-R-J2-PDC line was cultured in 6C/Colon 1B media, which includes all 6A media components plus 50 ng/mL human EGF recombinant protein (Thermo Fisher Scientific, cat. PHG0311). […]

[1] = second compound 0.0316 µM, first compound 0.0316 µM
[2] = second compound 0.0316 µM, first compound 0.1 µM
[3] = second compound 0.0316 µM, first compound 0.316 µM
[4] = second compound 0.0316 µM, first compound 1 µM
[5] = second compound 0.0316 µM, first compound 3.16 µM
[6] = second compound 0.0316 µM, first compound 10 µM
[7] = second compound 0.1 µM, first compound 0.0316 µM
[8] = second compound 0.1 µM, first compound 0.1 µM
[9] = second compound 0.1 µM, first compound 0.316 µM
[10] = second compound 0.1 µM, first compound 1 µM
[11] = second compound 0.1 µM, first compound 3.16 µM
[12] = second compound 0.1 µM, first compound 10 µM
[13] = second compound 0.316 µM, first compound 0.0316 µM
[14] = second compound 0.316 µM, first compound 0.1 µM
[15] = second compound 0.316 µM, first compound 0.316 µM
[16] = second compound 0.316 µM, first compound 1 µM
[17] = second compound 0.316 µM, first compound 3.16 µM
[18] = second compound 0.316 µM, first compound 10 µM
[19] = second compound 1 µM, first compound 0.0316 µM
[20] = second compound 1 µM, first compound 0.1 µM
[21] = second compound 1 µM, first compound 0.316 µM
[22] = second compound 1 µM, first compound 1 µM
[23] = second compound 1 µM, first compound 3.16 µM
[24] = second compound 1 µM, first compound 10 µM
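Further: spheroids exposed to compounds for seven days.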
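Wherever viability, T/C is given: 100% = DMSO vehicle control viability.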

## CNC(=O)c1ccc(N2C(=S)N(c3ccc(C#N)c(C(F)(F)F)c3)C(=O)C2(C)C)cc1F + CC(Nc1ccc2c(c1)OCCn1cc(N3C(=O)OCC3C(F)F)nc1-2)C(N)=O
Second compound 0.00316 µM
  pIC50: < 5.00
Second compound 0.01 µM
  pIC50: < 5.00
Second compound 0.0316 µM
  pIC50: < 5.00
Second compound 0.1 µM
  pIC50: < 5.00
Second compound 0.316 µM
  pIC50: < 5.00
Second compound 1 µM
  pIC50: 5.43
Second compound 0.00316 µM, first compound 0.0316 µM
  viability, T/C: 99.8%
Second compound 0.00316 µM, first compound 0.1 µM
  viability, T/C: 87%
Second compound 0.00316 µM, first compound 0.316 µM
  viability, T/C: 89.7%
Second compound 0.00316 µM, first compound 1 µM
  viability, T/C: 101%
Second compound 0.00316 µM, first compound 3.16 µM
  viability, T/C: 99.3%
Second compound 0.00316 µM, first compound 10 µM
  viability, T/C: 88.2%
Second compound 0.01 µM, first compound 0.0316 µM
  viability, T/C: 103%
Second compound 0.01 µM, first compound 0.1 µM
  viability, T/C: 94.8%
Second compound 0.01 µM, first compound 0.316 µM
  viability, T/C: 97.6%
Second compound 0.01 µM, first compound 1 µM
  viability, T/C: 91.3%
Second compound 0.01 µM, first compound 3.16 µM
  viability, T/C: 101%
Second compound 0.01 µM, first compound 10 µM
  viability, T/C: 90%
[1]
  viability, T/C: 93.3%
[2]
  viability, T/C: 101%
[3]
  viability, T/C: 102%
[4]
  viability, T/C: 92.8%
[5]
  viability, T/C: 97.5%
[6]
  viability, T/C: 90.1%
[7]
  viability, T/C: 97.7%
[8]
  viability, T/C: 92%
[9]
  viability, T/C: 91.9%
[10]
  viability, T/C: 91.7%
[11]
  viability, T/C: 87.5%
[12]
  viability, T/C: 77.6%
[13]
  viability, T/C: 82.7%
[14]
  viability, T/C: 75.8%
[15]
  viability, T/C: 79.7%
[16]
  viability, T/C: 70.2%
[17]
  viability, T/C: 62.2%
[18]
  viability, T/C: 60.2%
[19]
  viability, T/C: 50.2%
[20]
  viability, T/C: 59.6%
[21]
  viability, T/C: 53%
[22]
  viability, T/C: 51.1%
[23]
  viability, T/C: 51.8%
[24]
  viability, T/C: 44.7%

## CC1(C)CCC(CN2CCN(c3ccc(C(=O)NS(=O)(=O)c4ccc(NCC5CCOCC5)c([N+](=O)[O-])c4)c(Oc4cnc5[nH]ccc5c4)c3)CC2)=C(c2ccc(Cl)cc2)C1 + Cc1nc(NC(=O)N2CCCC2C(N)=O)sc1-c1ccnc(C(C)(C)C(F)(F)F)c1
Second compound 0.0316 µM
  pIC50: 5.24
Second compound 0.1 µM
  pIC50: 5.24
Second compound 0.316 µM
  pIC50: 5.27
Second compound 1 µM
  pIC50: 5.37
Second compound 3.16 µM
  pIC50: 5.77
Second compound 10 µM
  pIC50: > 7.50
[1]
  viability, T/C: 102%
[2]
  viability, T/C: 115%
[3]
  viability, T/C: 104%
[4]
  viability, T/C: 101%
[5]
  viability, T/C: 84.4%
[6]
  viability, T/C: 19.3%
[7]
  viability, T/C: 115%
[8]
  viability, T/C: 101%
[9]
  viability, T/C: 110%
[10]
  viability, T/C: 97.9%
[11]
  viability, T/C: 85%
[12]
  viability, T/C: 19.8%
[13]
  viability, T/C: 111%
[14]
  viability, T/C: 103%
[15]
  viability, T/C: 112%
[16]
  viability, T/C: 107%
[17]
  viability, T/C: 75.7%
[18]
  viability, T/C: 18.7%
[19]
  viability, T/C: 91.5%
[20]
  viability, T/C: 104%
[21]
  viability, T/C: 97.2%
[22]
  viability, T/C: 90.7%
[23]
  viability, T/C: 60.8%
[24]
  viability, T/C: 17.9%
Second compound 3.16 µM, first compound 0.0316 µM
  viability, T/C: 69.3%
Second compound 3.16 µM, first compound 0.1 µM
  viability, T/C: 66.7%
Second compound 3.16 µM, first compound 0.316 µM
  viability, T/C: 63.9%
Second compound 3.16 µM, first compound 1 µM
  viability, T/C: 59.3%
Second compound 3.16 µM, first compound 3.16 µM
  viability, T/C: 40.2%
Second compound 3.16 µM, first compound 10 µM
  viability, T/C: 18.3%
Second compound 10 µM, first compound 0.0316 µM
  viability, T/C: 38.6%
Second compound 10 µM, first compound 0.1 µM
  viability, T/C: 34.1%
Second compound 10 µM, first compound 0.316 µM
  viability, T/C: 38.1%
Second compound 10 µM, first compound 1 µM
  viability, T/C: 35.7%
Second compound 10 µM, first compound 3.16 µM
  viability, T/C: 33%
Second compound 10 µM, first compound 10 µM
  viability, T/C: 15.1%
